From ChEMBL document CHEMBL1134748, “Identification and characterization of a potential ischemia-selective N-methyl-D-aspartate (NMDA) receptor ion-channel blocker, CNS 5788” (Bioorg Med Chem Lett, 2001) come the findings set out here.

SMILES strings stand for the structures.

The nature of series [1]: Cardiac sodium channel blocking activity by [14C]guanidinium flux assay. It counts as functional.
Series [2] deals with Sodium channel alpha subunits; brain (Types I, II, III) (Homo sapiens, UniProt P35498+Q99250+Q9NY46). The series can be described thus: Neuronal sodium channel blocking activity by [14C]guanidinium flux assay. The series is classed as functional.
In series [3] the target is Glutamate [NMDA] receptor. The series can be described thus: In vitro displacement of [3H]MK-801 from N-methyl-D-aspartate glutamate receptor. The series is classed as protein-complex assay. (In a radioligand displacement assay an active substance lowers the binding of a labelled ligand.)
Series [4] can be described thus: Half life value of the compound. Particulars: rat. The series is classed as ADME.
The species entered for the next series is Mus musculus. The series can be described thus: Effective dose required to block the audiogenic seizures. It counts as functional.
Series [5] can be described thus: Lowest effective intravenous dose required to observe the behavioral effects (excitation). It counts as functional.
Series [6] has as its system Rattus norvegicus. The experiment in a line: Compound was tested in rotarod motor assay and the effective intravenous dose required to fall from the rod was reported. It counts as functional. For orientation: In the rotarod test animals must keep their balance on a rotating rod.
Series [7] concerns Rattus norvegicus. The series can be described thus: Compound was tested in hypoxia -ischemia reduction model for percent reduction in lesion volume at the dose 10 mg/kg (ip).
Series [8] relates to Rattus norvegicus. The experiment in a line: Compound was tested in hypoxia -ischemia reduction model for percent reduction in lesion volume at the dose 20 mg/kg (ip).
In series [9] the test system is Rattus norvegicus. The experiment in a line: Tested in rat middle cerebral artery occlusion model (MACO model) and percent reduction in total lesion volume at the dose of 4.5 mg/kg (combination ip and iv). Particulars: route intraperitoneal.
The subject of series [10] is Rattus norvegicus. The series can be described thus: Tested in rat middle cerebral artery occlusion model (MACO model) and percent reduction in total lesion volume at the dose of 1.5 mg/kg (combination ip and iv). The series is classed as functional. The conditions noted are these: route intraperitoneal.
In series [11] the test system is Rattus norvegicus. The experiment in a line: Compound was tested in hypoxia -ischemia reduction model for percent reduction in lesion volume at the dose 4 mg/kg (iv). It counts as functional.

As to `CN(C(=N)Nc1cc([S+](C)[O-])ccc1Cl)c1cccc([S+](C)[O-])c1` (centres undefined), the results for the IC50 in series [1] and in [2] were 81 µM and more than 25 µM, respectively.

Regarding `CSc1cccc(N(C)C(=N)Nc2cc([S+](C)[O-])ccc2Cl)c1.Cl` (centres undefined), the Ki in series [3] stood at 0.834 µM. The IC50 in [1] was 29.5 µM; in series [2], more than 25 µM.

As to `CSc1ccc(Cl)c(NC(=N)N(C)c2cccc([S+](C)[O-])c2)c1` (single isomer, unassigned; (-)), the affinity in series [3] corresponds to a Ki of 0.321 µM. Besides, the concentration for half-maximal inhibition (IC50) in series [1] is 26 µM; in [2] it was more than 25 µM.

In the case of `CSc1ccc(Cl)c(NC(=N)N(C)c2cccc([S+](C)[O-])c2)c1` (stereo in doubt; 10), the half-life in [4] came out at 31 min. Further, in [3], the Ki turned out to be 0.179 µM. For the same compound, the IC50 in series [1] amounted to 26 µM; in series [2], 83.1 µM. The ED50 was 12 mg/kg in the series listed under Mus musculus and 8.8 mg/kg in the series with Rattus norvegicus [6]. The compound further came in with a Dose in series [5] of 4 mg/kg. Besides, the Reduction in the series with Rattus norvegicus [7] amounted to 60%; with Rattus norvegicus [8] it was 100%; with Rattus norvegicus [9], 32%.

Take `CSc1ccc(Cl)c(NC(=N)N(C)c2cccc([S+](C)[O-])c2)c1` (stereo in doubt; 15): in [4], the T1/2 is reported as 32 min. The affinity in series [3], expressed as Ki, was 0.233 µM. Also, the figures for the IC50 in series [1] and in series [2] were 23.7 µM and more than 25 µM, respectively.

On to `CSc1cccc(N(C)C(=N)Nc2cc(SC)ccc2Cl)c1` [CNS-5161], for which the half-maximal inhibitory concentration (IC50) in [1] was 2.25 µM; in [2] it was 1.75 µM. Also, the Reduction with Rattus norvegicus [10] came out at 33%; in the series with Rattus norvegicus [11] it was 74%. Moreover, the median effective dose (ED50) in the series filed under Mus musculus was 0.9 mg/kg; with Rattus norvegicus [6] it was 0.14 mg/kg. In series [5], the Dose stood at 0.25 mg/kg.

One may read the IC50 as the concentration needed to halve the response being measured. What is called Ki is a measure of affinity in units of concentration, obtained from inhibition or displacement. Higher therefore signals lower affinity. One may read the half-life as how long it takes for the measured level to halve. A lower half-life goes with fast loss. Usually ED50 stands for the dose at which the effect has come halfway, by size or by number of responders. Low values mean an effect at a small dose, high ones a need for a large dose.
